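Step 1: Grow cells in 96-well plates. Step 2: Expose to compound for 48 hours at 5 concentrations. Step 3: Interpolate endpoints linearly; if unreached, use highest concentration. Abbreviation: GI50, concentration required for 50% inhibition of growth.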 Calls of active or inactive are those of the source. Rule as the data show it: active = GI50 up to about 1.1 µM and inactive = higher.
Columns and labels:
Assay in all cases: inhibition of tumour cell growth, NCI panel, 48 h
786-0 = system: 786-0
A498 = system: A498
A549 = system: A549
ACHN = system: ACHN
BT-549 = system: BT-549
CAKI-1 = system: CAKI-1
COLO 205 = system: COLO 205
DU-145 = system: DU-145
EKVX = system: EKVX
HCC 2998 = system: HCC 2998
HCT-116 = system: HCT-116
HCT-15 = system: HCT-15
HL-60 = system: HL-60
HOP-62 = system: HOP-62
HOP-92 = system: HOP-92
HT-29 = system: HT-29
Hs-578T = system: Hs-578T
IGROV-1 = system: IGROV-1
K562 = system: K562
KM12 = system: KM12
LOX IMVI = system: LOX IMVI
M14 = system: M14
MCF7 = system: MCF7
MDA-MB-231 = system: MDA-MB-231
MDA-MB-435 = system: MDA-MB-435
MDA-N = system: MDA-N
MOLT-4 = system: MOLT-4
Malme-3M = system: Malme-3M
NCI-H226 = system: NCI-H226
NCI-H23 = system: NCI-H23
NCI-H460 = system: NCI-H460
NCI-H522 = system: NCI-H522
NCI/ADR-RES = system: NCI/ADR-RES
OVCAR-3 = system: OVCAR-3
OVCAR-4 = system: OVCAR-4
OVCAR-5 = system: OVCAR-5
OVCAR-8 = system: OVCAR-8
PC-3 = system: PC-3
RPMI-8226 = system: RPMI-8226
RXF 393 = system: RXF 393
SF-268 = system: SF-268
SF-295 = system: SF-295
SF-539 = system: SF-539
SK-MEL-28 = system: SK-MEL-28
SK-MEL-2 = system: SK-MEL-2
SK-MEL-5 = system: SK-MEL-5
SK-OV-3 = system: SK-OV-3
SN12C = system: SN12C
SNB-19 = system: SNB-19
SNB-75 = system: SNB-75
SR = system: SR
SW-620 = system: SW-620
T47D = system: T47D
TK-10 = system: TK-10
U-251 = system: U-251
UACC-257 = system: UACC-257
UACC-62 = system: UACC-62
UO-31 = system: UO-31
CCRF-CEM = system: CCRF-CEM

Measured: GI50

CCOC(=O)c1c2c(n3ccccc13)C(=O)c1ccccc1C2=O
11.1 µM: HCT-15
inactive: 786-0 19.1 µM | A498 61.4 µM | A549 3.82 µM | ACHN 17.9 µM | BT-549 21.6 µM | CAKI-1 > 100 µM | COLO 205 26.5 µM | DU-145 > 100 µM | EKVX > 100 µM | HCC 2998 2.55 µM | HCT-116 > 100 µM | HL-60 > 100 µM | HOP-62 97.9 µM | HOP-92 44.8 µM | HT-29 > 100 µM | Hs-578T 19.7 µM | IGROV-1 > 100 µM | K562 > 100 µM | KM12 > 100 µM | LOX IMVI > 100 µM | M14 > 100 µM | MCF7 46 µM | MDA-MB-231 > 100 µM | MDA-MB-435 > 100 µM | MDA-N > 100 µM | MOLT-4 > 100 µM | Malme-3M 7.91 µM | NCI-H226 > 100 µM | NCI-H23 42.2 µM | NCI-H460 3.52 µM | NCI-H522 > 100 µM | NCI/ADR-RES > 100 µM | OVCAR-3 > 100 µM | OVCAR-4 > 100 µM | OVCAR-5 > 100 µM | OVCAR-8 > 100 µM | PC-3 > 100 µM | RPMI-8226 > 100 µM | RXF 393 48.1 µM | SF-268 31.3 µM | SF-295 > 100 µM | SF-539 36.7 µM | SK-MEL-28 > 100 µM | SK-MEL-2 > 100 µM | SK-MEL-5 10.7 µM | SK-OV-3 > 100 µM | SN12C > 100 µM | SNB-19 80 µM | SNB-75 19.5 µM | SR > 100 µM | SW-620 > 100 µM | T47D > 100 µM | TK-10 83.4 µM | U-251 54.5 µM | UACC-257 > 100 µM | UACC-62 67.9 µM | UO-31 > 100 µM

Cn1c(=O)c2c(nc(N)n2C2OC(CO)C(O)C2O)n(C)c1=O (stereo unspecified)
> 100 µM: HCT-15
inactive: 786-0 > 100 µM | A498 > 100 µM | A549 > 100 µM | ACHN > 100 µM | BT-549 > 100 µM | CAKI-1 > 100 µM | CCRF-CEM > 100 µM | COLO 205 > 100 µM | DU-145 > 100 µM | EKVX > 100 µM | HCC 2998 > 100 µM | HCT-116 > 100 µM | HL-60 > 100 µM | HOP-62 > 100 µM | HOP-92 61.9 µM | HT-29 > 100 µM | Hs-578T > 100 µM | IGROV-1 > 100 µM | K562 > 100 µM | KM12 > 100 µM | LOX IMVI > 100 µM | M14 > 100 µM | MCF7 > 100 µM | MDA-MB-231 > 100 µM | MDA-MB-435 > 100 µM | MDA-N > 100 µM | MOLT-4 > 100 µM | Malme-3M > 100 µM | NCI-H226 > 100 µM | NCI-H23 > 100 µM | NCI-H460 > 100 µM | NCI-H522 > 100 µM | NCI/ADR-RES > 100 µM | OVCAR-3 > 100 µM | OVCAR-4 > 100 µM | OVCAR-5 > 100 µM | OVCAR-8 > 100 µM | PC-3 > 100 µM | RPMI-8226 > 100 µM | RXF 393 > 100 µM | SF-268 > 100 µM | SF-295 > 100 µM | SF-539 > 100 µM | SK-MEL-28 > 100 µM | SK-MEL-5 > 100 µM | SK-OV-3 > 100 µM | SN12C > 100 µM | SNB-19 > 100 µM | SNB-75 > 100 µM | SR > 100 µM | SW-620 > 100 µM | T47D > 100 µM | TK-10 > 100 µM | U-251 > 100 µM | UACC-257 > 100 µM | UACC-62 > 100 µM | UO-31 > 100 µM

CCOc1cc(/C=N/c2nc3cc4sc(/N=C/c5ccc(O)c(OCC)c5)nc4cc3s2)ccc1O
> 100 µM: HCT-15
inactive: 786-0 > 100 µM | A498 > 100 µM | A549 52.4 µM | ACHN > 100 µM | BT-549 > 100 µM | CAKI-1 > 100 µM | COLO 205 24.7 µM | DU-145 > 100 µM | EKVX 79.1 µM | HCC 2998 > 100 µM | HCT-116 > 100 µM | HL-60 3.62 µM | HOP-62 > 100 µM | HOP-92 > 100 µM | HT-29 60.4 µM | Hs-578T > 100 µM | IGROV-1 > 100 µM | K562 60.5 µM | KM12 > 100 µM | LOX IMVI 55.8 µM | M14 > 100 µM | MCF7 82 µM | MDA-MB-231 > 100 µM | MDA-MB-435 > 100 µM | MDA-N 93.3 µM | MOLT-4 30.8 µM | Malme-3M > 100 µM | NCI-H226 25.8 µM | NCI-H23 > 100 µM | NCI-H460 20.4 µM | NCI-H522 50.4 µM | NCI/ADR-RES > 100 µM | OVCAR-3 > 100 µM | OVCAR-4 > 100 µM | OVCAR-5 > 100 µM | OVCAR-8 > 100 µM | PC-3 > 100 µM | RPMI-8226 > 100 µM | RXF 393 > 100 µM | SF-268 > 100 µM | SF-295 > 100 µM | SF-539 20.7 µM | SK-MEL-28 21.3 µM | SK-MEL-2 > 100 µM | SK-MEL-5 71.8 µM | SK-OV-3 > 100 µM | SN12C 76.7 µM | SNB-19 > 100 µM | SNB-75 > 100 µM | SR 12.9 µM | SW-620 38.7 µM | T47D > 100 µM | TK-10 > 100 µM | U-251 > 100 µM | UACC-257 > 100 µM | UACC-62 > 100 µM | UO-31 > 100 µM

Cc1ccc2c(c1C)C(=O)C1(Cc3cc4c(cc3C1=O)CCC4)C2 (stereo unspecified)
active: SF-539 0.726 µM
> 100 µM: HCT-15
inactive: 786-0 > 100 µM | A498 > 100 µM | A549 > 100 µM | ACHN > 100 µM | BT-549 > 100 µM | CAKI-1 > 100 µM | CCRF-CEM > 100 µM | COLO 205 > 100 µM | DU-145 > 100 µM | EKVX > 100 µM | HCC 2998 > 100 µM | HCT-116 > 100 µM | HL-60 > 100 µM | HOP-92 > 100 µM | HT-29 > 100 µM | Hs-578T > 100 µM | IGROV-1 > 100 µM | K562 > 100 µM | KM12 > 100 µM | M14 > 100 µM | MCF7 > 100 µM | MDA-MB-231 > 100 µM | MDA-MB-435 > 100 µM | MDA-N > 100 µM | MOLT-4 > 100 µM | Malme-3M > 100 µM | NCI-H226 > 100 µM | NCI-H23 > 100 µM | NCI-H460 > 100 µM | NCI-H522 > 100 µM | NCI/ADR-RES > 100 µM | OVCAR-3 87.9 µM | OVCAR-4 > 100 µM | OVCAR-5 > 100 µM | OVCAR-8 > 100 µM | PC-3 > 100 µM | RPMI-8226 > 100 µM | RXF 393 99.8 µM | SF-268 > 100 µM | SF-295 > 100 µM | SK-MEL-28 > 100 µM | SK-MEL-2 > 100 µM | SK-MEL-5 > 100 µM | SK-OV-3 > 100 µM | SN12C > 100 µM | SNB-19 > 100 µM | SNB-75 > 100 µM | SR > 100 µM | SW-620 > 100 µM | T47D > 100 µM | TK-10 > 100 µM | U-251 > 100 µM | UACC-257 > 100 µM | UACC-62 > 100 µM | UO-31 > 100 µM

Source: ChEMBL document CHEMBL1201862, “PubChem BioAssay data set” (2004)
